Source: US11578055B2, “Triazacyclododecansulfonamide (“TCD”)-based protein secretion inhibitors” (KEZAR LIFE SCIENCES, priority 2018, dated 2023)
Read-outs that look alike come from different tables or passages of the source.

Key:
[1] = system: PD1 signal sequence plus 10 amino acids fused to Gaussia Luciferase (PD1-ss+10aa/Gaussia Luciferase); assay: Dox Induced PD1-ss-Gluc Assay; format: cell-based; conditions: 24 hr, read-out: 24 hr Dox Inducible PD1ssGluc 293FRT/TO: Mean IC50
Excerpt: FIp-In 293 T-REx™ cells were transfected with pcDNA™5/FRT/TO plasmid inserted with cDNA encoding Gaussia Luciferase fused to the 3′ end of cDNA encoding PD1 signal sequence plus 10 amino acids (N-[…]-C) (SEQ ID NO: 1). Transfected cells were selected for resistance to the selectable markers Hygromycin and Blasticidin to create a stable cell line that contained the PD1-ss+10aa/Gaussia Luciferase cDNA insert whose expression was regulated under the T-REx™ system. The day before assay, cells were trypsinized and plated in 384-well tissue culture plates. The next day, compound dilutions in DMSO/media containing doxycycline were added to the wells and incubated at 37° C., 5% CO2.
(§1) For chemical structures that include one or more stereoisomers, but are illustrated without indicating stereochemistry, the assay data refers to a mixture of stereoisomers.

[2] = system: full length TNFα (amino acids 1-233) fused to Gaussia Luciferase; assay: Dox Induced TNFα-FL-Gluc Assay; format: cell-based; conditions: 24 hr, read-out: 24 hr Dox Inducible TNFaFLGluc 293FRT/TO: Mean IC50
Excerpt: FIp-In 293 T-REx™ cells were transfected with pcDNA™5/FRT/TO plasmid inserted with cDNA encoding Gaussia Luciferase fused to the 3′ end of cDNA encoding full length TNFα (amino acids 1-233). Transfected cells were selected for resistance to the selectable markers Hygromycin and Blasticidin to create a stable cell line that contained the TNFα-FL/Gaussia Luciferase cDNA insert whose expression was regulated under the T-REx™ system. The day before assay, cells were trypsinized and plated in 384-well tissue culture plates. The next day, compound dilutions in DMSO/media containing doxycycline were added to the wells and incubated at 37° C., 5% CO2.
as §1

[3] = system: multiple myeloma cell line NCl-H929; assay: H929 Cell Viability Assay; format: cell-based, human
Method: The human multiple myeloma cell line NCl-H929 was cultured in Advanced RPMI 1640 media (Gibco®) supplemented with 6% fetal bovine serum, 2 mM Glutamine, and 1× Penicillin/Streptomycin. On the day of assay, cells were resuspended in RPMI 1640 media supplemented with 10% fetal bovine serum, 2 mM Glutamine, and 1× Penicillin/Streptmycin and plated in 384-well tissue culture plates and treated with compound dilutions in DMSO/media. Plates were incubated at 37° C., 5% CO2 for 48 hours. After 48 hours, Celltiter-Glo® (Promega) was added to each well and luciferase signal was quantified using Tecan Infinite M1000 Pro for cell viability determination.
as §1

[4] = system: multiple myeloma cell line U266B1; assay: U266 Cell Viability Assay; format: cell-based, human; conditions: Homo sapiens, U-266, 48 hr
Method: The human multiple myeloma cell line U266B1 was cultured in RPMI 1640 media supplemented with 10% fetal bovine serum, 2 mM Glutamine, and 1× Penicillin/Streptomycin. Cells were plated in 384-well tissue culture plates and treated with compound dilutions in DMSO/media. Plates were incubated at 37° C., 5% CO2 for 48 hours. After 48 hours, Celltiter-Glo® (Promega) was added to each well and luciferase signal was quantified using Tecan Infinite M1000 Pro for cell viability determination.
For chemical structures that include one or more stereoisomers, but are illustrated without indicating stereochemistry, the assay data refers to a mixture of stereoisomers

[5] = In Vitro Microsome Stability Assay (human); format: in vitro ADME
Method: (§2) Potassium phosphate (423 μL of a 0.1 M solution) was added to 8-strip deep well tubes followed by human, mouse, rat, or monkey microsomes (25 μL of a 20 mg/mL solution). The tubes were then placed on ice and the test article (2 μL of a 0.25 mM solution in DMSO) was added. The mixture was preincubated at 37° C. for 3 to 5 minutes (shaking at 150 rpm) then the reaction was initiated by adding 50 μL NADPH. An aliquot of samples (100 μL) were collected at 0 and 30 min and 200 μL of an acetonitrile mixture containing IS (compound 914) was added to quench the reaction. After centrifuging for 10 min at 4000 rpm, a mixed solution of the 20 μL of the supernatant (20 μL) plus 100 μL ACN/H2O (1:1) were injected for LC-MS/MS analysis. Liver microsome stability is assessed by the % remaining of compound at 30 min which is calculated using the following equation: [(AUCanalyteT=30/AUCIS)/(AUCanalyteT=0/AUCIS)]*100
as §1

[6] = In Vitro Microsome Stability Assay (mouse); format: in vitro ADME
Method: as §2, §1

[7] = In Vitro Microsome Stability Assay (rat); format: in vitro ADME
Method: as §2, §1

[8] = In Vitro Microsome Stability Assay (monkey); format: in vitro ADME
Method: as §2, §1

[9] = Homo sapiens, NCI-H929, 48 h, H929, read-out: 48 hr H929 Viability Celltiter-Glo: Mean EC50
[10] = U266, read-out: 48 hr U266 Viability Celltiter-Glo: Mean EC50
[11] = Homo sapiens, NCI-H929, 48 h, H929, Celltiter-Glo
[12] = human liver microsomes, 30 min w/ NADPH
[13] = mouse liver microsomes, 30 min w/ NADPH
[14] = rat liver microsomes, 30 min w/ NADPH
[15] = monkey liver microsomes, 30 min w/ NADPH

Row | Compound | IC50 ([1]; 293FRT/TO) [µM] | IC50 ([2]; 293FRT/TO) [µM] | EC50 [3, 9] [µM] | EC50 [4, 10] [µM] | Liver Microsome Stability-% Left after 30 min w/ NADPH (%) Human ([5]; human, 30 min, NADPH) [%] | Liver Microsome Stability-% Left after 30 min w/ NADPH (%) Mouse ([6]; mouse, 30 min, NADPH) [%] | Liver Microsome Stability-% Left after 30 min w/ NADPH (%) Rat ([7]; rat, 30 min, NADPH) [%] | Liver Microsome Stability-% Left after 30 min w/ NADPH (%) Monkey ([8]; monkey, 30 min, NADPH) [%] | EC50 ([3]; 48 hr, H929, read-out: 48 hr H929 Viability Celltiter-Glo: Mean EC50) [µM] | IC50 ([1]; Dox inducible, 293FRT/TO cells) [µM] | IC50 ([2]; Dox inducible, 293FRT/TO cells) [µM] | EC50 [3, 11] [µM] | EC50 ([4]; U266, Celltiter-Glo) [µM] | Liver Microsome Stability-% Left after 30 min w/ NADPH (%) Human [5, 12] [%] | Liver Microsome Stability-% Left after 30 min w/ NADPH (%) Mouse [6, 13] [%] | Liver Microsome Stability-% Left after 30 min w/ NADPH (%) Rat [7, 14] [%] | Liver Microsome Stability-% Left after 30 min w/ NADPH (%) Monkey [8, 15] [%]
1 | C=C1CN(S(=O)(=O)c2ccc(C)cc2)CCCN(CC2CCCCC2)CCCN(S(=O)(=O)C2CCCCC2)C1 [A5] | 0.651 | > 25 |  | > 25 | 0.24 | 0.27 | 0.24 | 0.31 | 8.43 |  |  |  |  |  |  |  | 
2 | C=C1CN(S(=O)(=O)c2ccc(N(C)C)cc2)CCCN(CC2CCCCC2)CCCN(S(=O)(=O)N2CCc3cc(-c4ccccc4)ccc3C2)C1 [A63, 4-((9-(cyclohexylmethyl)-3-methylene-5-((6-phenyl-3,4-dihydroisoquinolin-2(1H)-yl)sulfonyl)-1,5,9-triazacyclododecan-1-yl)sulfonyl)-N,N-dimethylaniline] | 0.0437 | 1.87 | 7.43 | > 25 | 76.4 | 85.2 | 88.2 | 84.4 |  |  |  |  |  |  |  |  | 
3 | CC1CCCCN1S(=O)(=O)N1CCCN(CC2CCCCC2)CCCN(S(=O)(=O)c2ccc(N(C)C)cc2)CC2(CC2)C1 (centres unmarked) [A20, 4-{[9-(cyclohexylmethyl)-13-[(2-methylpiperidin-1-yl)sulfonyl]-5,9,13-triazaspiro[2.11]tetradecan-5-yl]sulfonyl}-N,N-dimethylaniline] | 0.207 | > 25 | 12.8 | > 25 | 0.05 | 0.07 | 0.19 | 0.06 |  |  |  |  |  |  |  |  | 
4 | C=C1CN(S(=O)(=O)c2ccc(N(C)C)cc2)CCCN(CC2CCCCC2)CCCN(S(=O)(=O)N2CCN(c3ccc(Cl)cc3)CC2)C1 [A85, 4-[(5-{[4-(4-chlorophenyl)piperazin-1-yl]sulfonyl}-9-(cyclohexylmethyl)-3-methylidene-1,5,9-triazacyclododecan-1-yl)sulfonyl]-N,N-dimethylaniline] | 0.0875 | > 25 | > 25 | > 25 | 25.6 | 52.2 | 64.9 | 42.9 |  |  |  |  |  |  |  |  | 
5 | C=C1CN(S(=O)(=O)c2ccc(N(C)C)cc2)CCCN(CC2CCCCC2)CCCN(S(=O)(=O)N2CCc3cc(Br)ccc3C2)C1 [A60, 4-({5-[(6-bromo-1,2,3,4-tetrahydroisoquinolin-2-yl)sulfonyl]-9-(cyclohexylmethyl)-3-methylidene-1,5,9-triazacyclododecan-1-yl}sulfonyl)-N,N-dimethylaniline] | 0.0185 | 0.886 | 1.48 | > 25 | 46.7 | 60.8 | 50.3 | 38.7 |  |  |  |  |  |  |  |  | 
6 | C=C1CN(S(=O)(=O)c2ccc(N(C)C)cc2)CCCN(CC2CCCCC2)CCCN(S(=O)(=O)N(C)C)C1 [A16, 9-(cyclohexylmethyl)-5-[4-(dimethylamino)benzenesulfonyl]-N,N-dimethyl-3-methylidene-1,5,9-triazacyclododecane-1-sulfonamide] | 0.108 | 6.34 | 4.98 | > 25 | 0.11 | 2.09 | 2.62 | 41.1 |  |  |  |  |  |  |  |  | 

More lines, now with the values ahead:

Row | IC50 ([1]; 293FRT/TO) [µM] | IC50 ([2]; 293FRT/TO) [µM] | EC50 [3, 9] [µM] | EC50 [4, 10] [µM] | Liver Microsome Stability-% Left after 30 min w/ NADPH (%) Human ([5]; human, 30 min, NADPH) [%] | Liver Microsome Stability-% Left after 30 min w/ NADPH (%) Mouse ([6]; mouse, 30 min, NADPH) [%] | Liver Microsome Stability-% Left after 30 min w/ NADPH (%) Rat ([7]; rat, 30 min, NADPH) [%] | Liver Microsome Stability-% Left after 30 min w/ NADPH (%) Monkey ([8]; monkey, 30 min, NADPH) [%] | EC50 ([3]; 48 hr, H929, read-out: 48 hr H929 Viability Celltiter-Glo: Mean EC50) [µM] | IC50 ([1]; Dox inducible, 293FRT/TO cells) [µM] | IC50 ([2]; Dox inducible, 293FRT/TO cells) [µM] | EC50 [3, 11] [µM] | EC50 ([4]; U266, Celltiter-Glo) [µM] | Liver Microsome Stability-% Left after 30 min w/ NADPH (%) Human [5, 12] [%] | Liver Microsome Stability-% Left after 30 min w/ NADPH (%) Mouse [6, 13] [%] | Liver Microsome Stability-% Left after 30 min w/ NADPH (%) Rat [7, 14] [%] | Liver Microsome Stability-% Left after 30 min w/ NADPH (%) Monkey [8, 15] [%] | Compound
7 | 0.188 | 3.5 | 9.21 | > 25 | 0.13 | 0.02 | 0.39 | 0.35 |  |  |  |  |  |  |  |  |  | C=C1CN(S(=O)(=O)c2ccc(N(C)C)cc2)CCCN(CC2CCCCC2)CCCN(S(=O)(=O)N2CCC(OC(C)C)CC2)C1 [A66, 4-{[9-(cyclohexylmethyl)-3-methylidene-5-{[4-(propan-2-yloxy)piperidin-1-yl]sulfonyl}-1,5,9-triazacyclododecan-1-yl]sulfonyl}-N,N-dimethylaniline]
8 |  |  |  |  |  |  |  |  |  | 1.5 | > 25 | > 25 | > 25 | 0.54 | 0.24 | 7.08 | 0.21 | CN(C)c1ccc(S(=O)(=O)N2CCCCN(S(=O)(=O)N3CCC(c4ccccc4)CC3)CCCN(CC3CCCCC3)CCC2)cc1 [B5]
9 | 0.0751 | 5.49 | > 11.8 | > 25 | 11.4 | 12.6 | 24.2 | 9.04 |  |  |  |  |  |  |  |  |  | C=C1CN(S(=O)(=O)c2ccc(N(C)C)cc2)CCCN(CC2CCCCC2)CCCN(S(=O)(=O)N2CCCC(c3ccccc3)C2)C1 (centres unmarked) [A38, 4-{[9-(cyclohexylmethyl)-3-methylidene-5-[(3-phenylpiperidin-1-yl)sulfonyl]-1,5,9-triazacyclododecan-1-yl]sulfonyl}-N,N-dimethylaniline]
10 |  |  |  |  |  |  |  |  |  | 3.64 | > 25 | > 25 | > 25 | 0.49 | 0.36 | 3.74 | 0.26 | CN(C)c1ccc(S(=O)(=O)N2C/C=C/CN(S(=O)(=O)N3CCC(c4ccccc4)CC3)CCCN(CC3CCCCC3)CCC2)cc1 [B9, 4-{[(11E)-5-(cyclohexylmethyl)-9-[(4-phenylpiperidin-1-yl)sulfonyl]-1,5,9-triazacyclotridec-11-en-1-yl]sulfonyl}-N,N-dimethylaniline]
